Our source for the Activity values is patent US8044073B2, “Aminobenzimidazoles and benzimidazoles as inhibitors of respiratory syncytial virus replication” (Tibotec Pharmaceuticals, priority 2003, dated 2011).

The subject of the first assay is Respiratory Syncytial Virus. The assay is described as follows: In vitro screening for activity against RSV (tetrazolium-based colorimetric assay, protection against viral cytopathology). The format is cell-based. To be noted: Table 1; RSV in HeLa cells, MTT, seven days after infection; pEC50 = -log of EC50 in molar units. The source says: The percent protection against cytopathology caused by viruses (antiviral activity or EC50) achieved by tested compounds and their cytotoxicity (CC50) are both calculated from dose-response curves. The selectivity of the antiviral effect is represented by the selectivity index (SI), calculated by dividing the CC50 (cytotoxic dose for 50% of the cells) by the EC50 (antiviral activity for 50% of the cells). The tables in the above experimental part list the category to which each of the prepared compounds belong: Compounds belonging to activity category “A” have a pEC50 (−log of EC50 when expressed in molar units) equal to or more than 7. Compounds belonging to activity category “B” have a pEC50 value between 6 and 7.
Automated tetrazolium-based colorimetric assays were used for determination of EC50 and CC50 of test compounds. Flat-bottom, 96-well plastic microtiter trays were filled with 180 μl of Eagle's Basal Medium, supplemented with 5% FCS (0% for FLU) and 20 mM Hepes buffer. Subsequently, stock solutions (7.8× final test concentration) of compounds were added in 45 μl volumes to a series of triplicate wells so as to allow simultaneous evaluation of their effects on virus- and mock-infected cells. Five five-fold dilutions were made directly in the microtiter trays using a robot system. Untreated virus controls, and HeLa cell controls were included in each test. Approximately 100 TCID50 of Respiratory Syncytial Virus was added to two of the three rows in a volume of 50 μl. The same volume of medium was added to the third row to measure the cytotoxicity of the compounds at the same concentrations as those used to measure the antiviral activity. After two hours of incubation, a suspension (4×10^5 cells/ml) of HeLa cells was added to all wells in a volume of 50 μl. The cultures were incubated at 37° C. in a 5% CO2 atmosphere. Seven days after infection the cytotoxicity and the antiviral activity was examined spectrophotometrically. To each well of the microtiter tray, 25 μl of a solution of MTT (3-(4,5-dimethylthiazol-2-yl)-2,5-diphenyltetrazolium bromide) was added. The trays were further incubated at 37° C. for 2 hours, after which the medium was removed from each cup. Solubilization of the formazan crystals was achieved by adding 100 μl 2-propanol. Complete dissolution of the formazan crystals were obtained after the trays have been placed on a plate shaker for 10 min. Finally, the absorbances were read in an eight-channel computer-controlled photometer (Multiskan MCC, Flow Laboratories) at two wavelengths (540 and 690 nm). The absorbance measured at 690 nm was automatically subtracted from the absorbance at 540 nm, so as to eliminate the effects of non-specific absorption.
The percent protection against cytopathology caused by viruses (antiviral activity or EC50) achieved by tested compounds and their cytotoxicity (CC50) were both calculated from dose-response curves. The selectivity of the antiviral effect is represented by the selectivity index (SI), calculated by dividing the CC50 (cytotoxic dose for 50% of the cells) by the EC50 (antiviral activity for 50% of the cells).
For the compound `Cc1ccc(O)c(Cn2c(N)nc3ccc(CNc4cccc(C)c4CO)cc32)n1` [Compound 87], the Activity came to 8.2. For `CC(=O)O.COc1ccccc1NCc1ccc2nc(N)n(Cc3nc(C)ccc3O)c2c1` [Compound 7], the Activity is recorded as 8.5. As for `Cc1ccc(O)c(Cn2c(N)nc3ccc(CNc4cccc(Br)c4)cc32)n1` [Compound 3], the Activity is recorded as 8.6.

`Cc1ccc(O)c(Cn2c(N)nc3ccc(CNc4cccc(SC(F)(F)F)c4)cc32)n1` [Compound 30] had an Activity of 7.8. Still for that read-out and setting: the figure for `Cc1ccc(O)c(Cn2c(N)nc3ccc(CNc4cccc(OCc5ccccc5)c4)cc32)n1` [Compound 77] is 6.8; for `CCc1cccc(NCc2ccc3nc(N)n(Cc4nc(C)ccc4O)c3c2)c1` [Compound 18] it is 8.0; for `CCc1cccc(CC)c1NCc1ccc2nc(N)n(Cc3nc(C)ccc3O)c2c1` [Compound 17] it is 8.1. `CSc1cccc(NCc2ccc3nc(N)n(Cc4nc(C)ccc4O)c3c2)c1` [Compound 15]: the Activity is recorded as 8.3.

`Cc1ccc(NCc2ccc3nc(N)n(Cc4nc(C)ccc4O)c3c2)cc1` [Compound 67] came in with an Activity of 7.3. On the same count and under the same terms, next, `C#Cc1cccc(NCc2ccc3nc(N)n(Cc4nc(C)ccc4O)c3c2)c1` [Compound 6]: 8.5; `Cc1ccc(O)c(Cn2c(N)nc3ccc(CNc4ccccc4C(C)C)cc32)n1` [Compound 32]: 7.8; `Cc1ccc(O)c(Cn2c(N)nc3ccc(CNc4cc(Cl)c(O)c(Cl)c4)cc32)n1` [Compound 72]: 7.1. As to `Cc1ccc(O)c(Cn2c(N)nc3ccc(CNc4cc(C(C)(C)C)cc(C(C)(C)C)c4)cc32)n1` [Compound 76], the Activity turned out to be 6.8. The same measure, in the same setting: the figure for `CCOC(=O)c1ccc(NCc2ccc3nc(N)n(Cc4nc(C)ccc4O)c3c2)c(O)c1` [Compound 14] is 8.3. On the same count and under the same terms, next, `COC(=O)c1cc(NCc2ccc3nc(N)n(Cc4nc(C)ccc4O)c3c2)cc(C(=O)OC)c1` [Compound 64]: 7.3. The same measure, in the same setting: the figure for `Cc1ccc(O)c(Cn2c(N)nc3ccc(CNc4cc(C(F)(F)F)cc(C(F)(F)F)c4)cc32)n1` [Compound 74] is 7.1.

In turn, `CCOc1cccc(NCc2ccc3nc(N)n(Cc4nc(C)ccc4O)c3c2)c1` [Compound 24] showed an Activity of 7.9. Same read-out and setting: the figure for `CC(=O)O.CCc1ccccc1NCc1ccc2nc(N)n(Cc3nc(C)ccc3O)c2c1` [Compound 12] is 8.4; for `Cc1ccc(O)c(Cn2c(N)nc3ccc(CNc4cc(F)cc(F)c4)cc32)n1` [Compound 49] it is 7.5; for `Cc1ccc(O)c(Cn2c(N)nc3ccc(CNc4ccccc4C(F)(F)F)cc32)n1` [Compound 48] it is 7.6. The same measure, in the same setting: next, `CC(=O)c1ccccc1NCc1ccc2nc(N)n(Cc3nc(C)ccc3O)c2c1` [Compound 69]: 7.2; `CCOC(=O)c1cccc(NCc2ccc3nc(N)n(Cc4nc(C)ccc4O)c3c2)c1` [Compound 59]: 7.3. The same measure, in the same setting: next, `Cc1ccc(O)c(Cn2c(N)nc3ccc(CNc4cc(C#N)ccc4CCO)cc32)n1` [Compound 89]: 10.6; `Cc1ccc(O)c(Cn2c(N)nc3ccc(CNc4ccc5c(c4)OCCO5)cc32)n1` [Compound 43]: 7.6; `CCOC(=O)c1ccccc1NCc1ccc2nc(N)n(Cc3nc(C)ccc3O)c2c1` [Compound 68]: 7.2.

Compound `CC(=O)Nc1cccc(NCc2ccc3nc(N)n(Cc4nc(C)ccc4O)c3c2)c1` [Compound 35] displayed an Activity of 7.7. Still for that read-out and setting: next, `Cc1ccc(O)c(Cn2c(N)nc3ccc(CNc4cccc(Cl)c4C)cc32)n1` [Compound 29]: 7.8; `Cc1ccc(O)c(Cn2c(N)nc3ccc(CNc4ccc(C#N)cc4)cc32)n1` [Compound 13]: 8.4.

`Cc1ccc(O)c(Cn2c(N)nc3ccc(CNc4cccc(S(=O)(=O)CCO)c4)cc32)n1` [Compound 33] displayed an Activity of 7.8.

Still in this assay, the particulars now being: Table 2; RSV in HeLa cells, MTT, seven days after infection; pEC50 = -log of EC50 in molar units.
The compound `Cc1cccc(NCc2ccc3c(c2)nc(N)n3Cc2nc(C)ccc2O)c1` [Compound 120] gave an Activity of 6.4.

Still in this assay, the particulars now being: Table 3; RSV in HeLa cells, MTT, seven days after infection; pEC50 = -log of EC50 in molar units.
Compound `Cc1cccc(N(Cc2ccc3nc(N)n(Cc4nc(C)ccc4O)c3c2)CC(O)CO)c1` (stereo not drawn) [Compound 180] yielded an Activity of 9.3. Still for that read-out and setting: next, `Cc1ccc(O)c(Cn2c(N)nc3ccc(CN(CCC(N)=O)c4cc(Cl)cc(Cl)c4)cc32)n1` [Compound 167]: 9.4.

The same assay, now with this note: Table 4; RSV in HeLa cells, MTT, seven days after infection; pEC50 = -log of EC50 in molar units.
On to `Cc1ccc(CCCO)c(NCc2ccc3ncn(Cc4nc(C)ccc4O)c3c2)c1` [Compound 191], for which the Activity worked out at 7.9. Still for that read-out and setting: the figure for `Cc1ccc(O)c(Cn2cnc3ccc(/C=C/C#N)cc32)n1` [Compound 189] is 4.8. Same read-out and setting: the figure for `Cc1ccc(CCO)c(NCc2ccc3ncn(Cc4nc(C)ccc4O)c3c2)c1` [Compound 192] is 7.8; for `Cc1cccc(N(CCO)Cc2ccc3ncn(Cc4nc(C)ccc4O)c3c2)c1` [Compound 193] it is 6.3.

Staying with this assay, now noted: Table 5a; RSV in HeLa cells, MTT, seven days after infection; pEC50 = -log of EC50 in molar units.
`CNc1nc2ccc(CO)cc2n1Cc1nc(C)ccc1O` [Compound 200] returned an Activity of 4.9. Still for that read-out and setting: next, `Cc1cc(C)c2nc(N)n(Cc3nc(C)ccc3O)c2c1` [Compound 199]: 6.8. Same read-out and setting: next, `Cc1ccc(O)c(Cn2c(N)nc3ccc(CCCN)cc32)n1.Cl` [Compound 196]: 7.7; `Cc1ccc(O)c(Cn2c(N)nc3ccc(CCC#N)cc32)n1` [Compound 198]: 6.8.

The assay is the same for the next values; noted with them: Table 5b; RSV in HeLa cells, MTT, seven days after infection; pEC50 = -log of EC50 in molar units.
On to `Cc1ccc(CCCO)c(NCc2ccc3nc(N)n(Cc4cccc(Br)n4)c3c2)c1` [Compound 228], for which the Activity is less than 4. The same measure, in the same setting: next, `Cc1ccc(CCCO)c(NCc2ccc3nc(N)n(Cc4cccc5cccnc45)c3c2)c1` [Compound 214]: 7.3; `COc1ccc(C)nc1Cn1c(N)nc2ccc(CNc3cc(C)ccc3CCCO)cc21` [Compound 209]: 7.8.

`Cc1ccc(CCCO)c(NCc2ccc3nc(N)n(Cc4ccc(F)cc4)c3c2)c1` [Compound 219]: the Activity came to 5.3.

Consider `Cc1cccc(N(CCCO)Cc2ccc3nc(N)n(Cc4cccc5cccnc45)c3c2)c1` [Compound 225], for which the Activity is recorded as less than 4.

The same assay, now with this note: Table 6; numeric activity values, pEC50 (−log of EC50 in molar units).
`CC(=O)c1cccc(NCc2ccc3c(c2)ncn3Cc2nc(C)ccc2O)c1` [Compound 286] showed an Activity of less than 4.0. In turn, `COCCNCc1ccc2c(c1)ncn2Cc1nc(C)ccc1O` [Compound 269] gave an Activity of less than 4.0.

Compound `Cc1ccc(O)c(Cn2cnc3cc(CNCCc4cccn4C)ccc32)n1` [Compound 243] displayed an Activity of 4.2. On the same count and under the same terms, next, `Cc1ccc(O)c(Cn2cnc3ccc(CNc4ccccc4)cc32)n1` [Compound 285]: less than 4.0; `CCc1cccc(NCc2ccc3c(c2)ncn3Cc2nc(C)ccc2O)c1` [Compound 294]: less than 4.0. On the same count and under the same terms, the figure for `Cc1ccc(O)c(Cn2cnc3ccc(NC(=O)Cc4ccccn4)cc32)n1` [Compound 276] is less than 4.0; for `Cc1ccc(O)c(Cn2cnc3cc(CNc4cccc(F)c4)ccc32)n1` [Compound 293] it is less than 4.0; for `Cc1cccc(C(=O)Nc2ccc3c(c2)ncn3Cc2nc(C)ccc2O)c1` [Compound 242] it is 4.2.

Regarding `Cc1ccc(O)c(Cn2cnc3cc(NC(=O)CCc4ccccc4)ccc32)n1` [Compound 280], the Activity was less than 4.0.

As for `Cc1ccc(O)c(Cn2cnc3cc(CNCCCc4ccccc4)ccc32)n1` [Compound 272], the Activity is recorded as less than 4.0. Same read-out and setting: the figure for `COCCCNCc1ccc2c(c1)ncn2Cc1nc(C)ccc1O` [Compound 260] is less than 4.0; for `Cc1ccc(O)c(Cn2cnc3cc(NC(=O)C4CCNCC4)ccc32)n1` [Compound 267] it is less than 4.0.
